Tested on: rat visual cortex slices
Test: Long-term potentiation (LTP) in visual cortex slice
Format: cell-based
Procedure: Long-Term Potentiation in Visual Cortex Slice
Following decapitation of the anesthetized rat, the brain was rapidly removed and immersed in ice-cold artificial cerebrospinal fluid (ACSF) containing (in mM) NaCl 124, KCl 3, KH2PO4 1.25, CaCl2 3.4, MgSO4 2.5, NaHCO3 26, and D-glucose 10. A block of visual cortex was created by removing the frontal ⅔ portion of the brain and the cerebellum. Coronal visual cortex slices of 350 μm thick were prepared from young adult (200-300 g) male Sprague-Dawley rats using a vibratome (VT 1000 S; Leica). The slices were maintained in an interface recording chamber perfused with preheated ACSF. Slices were continuously perfused with this solution at a rate of 1.00-1.50 ml/min while the surface of the slices was exposed to warm, humidified 95% O2/5% CO2 and maintained at 31±1° C. Visual cortex slices were allowed to recover for 1 hr before recording began. A single stimulating and recording electrode was placed in layer IV and III, respectively, to generate and record field excitatory postsynaptic potentials (fEPSPs). Pulses were administered at 0.05 Hz using a current that produced a fEPSP that is 50% of the maximum spike free response. An input-output (IO) curve is done to determine the stimulation needed to achieve a stable baseline. Following a 15 min stable baseline recording period, a train of 5 theta bursts (each burst containing four pulses at 100 Hz with an inter-burst interval of 200 ms) is delivered to the slice. This is repeated 2 additional times with a 1 minute inter-train interval, and the level of LTP was recorded for at least 30 min. Changes in amplitude of the synaptic response were used to measure the extent of LTP, since the amplitude was determined to be the more consistent parameter than the slope of the response. Control LTP values were obtained from slices not treated with drug. Different slices were used to study drug effects on LTP. Brimonidine was infused after 15 min baseline recording for duration of 20 minutes followed by LTP induction. […] LTP was recorded for at least 30 min after induction.

| SMILES | brimonidine-induced enhancement of LTP in presence of alpha 2 pan antagonist (atipamezole plus brimonidine, FIG. 1 right panel) | effect on LTP (brimonidine administered to visual cortex slices, FIG. 1 left panel) | threshold dose for enhancement of LTP (visual cortex slices, FIG. 1 left panel) [nM] |
| --- | --- | --- | --- |
| CCC1(c2cnc[nH]2)Cc2ccccc2C1 [atipamezole] | fully suppressed | – | – |
| Brc1c(N=C2NCCN2)ccc2nccnc12 [brimonidine, (5-bromo-quinoxalin-6-yl)-imidazolidin-2-ylidene-amine] | – | marked and dose-dependent enhancement of LTP | 3 |
